Entries after “also recorded” stand apart in the source; their conditions may differ. Where two headings read alike, the source gives them in different places.
Tests used:
Format in all cases: physicochemical
[1] = Hygroscopicity by dynamic vapor sorption (DVS); conditions: 25° C.
Experimental: DVS is dynamic vapor sorption: Surface Measurement Systems advantage 2 is used, the humidity starts from 50%, the humidity range is 0%-95%, and the step size is 10%. The judgment standard is that the mass change is less than 0.01% within 10000 min, and two cycles are performed. Surface Measurement Systems advantage 2 was used, the experiment was carried out at 25° C. with humidity starting from 50%, the humidity range observed was 0%-95%, the step size was 10%, and the judgment standard was that the mass change was less than 0.01% within 10000 min, and two cycles were performed.

[2] = Influencing factors stability (heating, light illumination, high humidity; spread and uncovered, 20 days)
Experimental: Example 6: the crystal form I of the dihydrochloride salt of the compound represented by formula (I) (example 1) was spread and uncovered, and the steadily of the sample was evaluated under heating (40° C., 60° C.), light illumination (4500 Lux), and high humidity (RH 75%, RH 90%) with a period of 20 days.
(§1) Example 10: the crystal form A (example 7) of the monohydrochloride salt of the compound of formula (I) was spread and uncovered, and the stability of the sample was evaluated under heating (40° C., 60° C.), light illumination (4500 Lux), high humidity (RH 75%, RH 90%) conditions with a period of 20 days.
as §1, with “Example 11:” for “Example 10:”, “form B” for “form A (example 7)”, “compound represented by” for “compound of”, “(I) (example 8)” for “(I)”
as §1, with “Example 12:” for “Example 10:”, “form C” for “form A (example 7)”, “compound represented by” for “compound of”, “(I) (example 9)” for “(I)”

[3] = Solubility in PBS 7.4 and FaSSIF solutions; conditions: thermodynamic from solid
Source text: The amorphous samples of the compound represented by formula (I) and the crystal form I samples of the dihydrochloride salt of the compound represented by formula (I) obtained in the present disclosure were further evaluated for solubility in PBS 7.4 and FaSSIF solutions.

[4] = Long-term stability, 25° C., 60% RH, 9 months; conditions: for Purity % 3 months / Purity % 9 months / Purity Initial: 60% RH
Experimental: Example 13: Three batches of the crystal form I of the dihydrochloride salt of the compound of formula (I) were subjected to a long-term stability investigation of 9 months under the conditions of 25° C±2° C., 60%RH±5%RH.

[5] = XRPD of sample taken out during DSC temperature rise
Source text: According to X-ray powder diffraction detection, the crystal form is crystal form I, and the XRPD pattern thereof is shown in FIG. 1.

Log D = assay: Log D
[6] = light illumination (4500 Lux), 4 days
[7] = light illumination (4500 Lux), 10 days
[8] = light illumination (4500 Lux), 20 days

CCCCOc1nc(N)c2cnn(Cc3ccc(CN4CCCC4)cc3)c2n1.Cl.Cl [crystal form I, 6-butoxy-1-(4-(pyrrolidin-1-ylmethyl)benzyl)-1H-pyrazolo[3,4-d]pyrimidin-4-amine dihydrochloride]
DVS weight change 0.0% RH-95.0% RH ([1]; 0.0% RH-95.0% RH): 9.19% | DVS weight change 10%RH-90.0%RH ([1]; 10%RH-90.0%RH): 6.628% | Crystal form before and after DVS (XRPD) ([1]; DVS two cycles, dihydrochloride): did not change; also recorded: has not changed; also recorded: unchanged | hygroscopicity (in words) ([1]; DVS, dihydrochloride): slightly hygroscopic; also recorded: (with hygroscopicity) | Maximum single impurity ([2]; 0 day): 0.11% | Purity ([2]; 0 day): 99.47% | Total impurities ([2]; 0 day): 0.53% | Maximum single impurity ([2]; 40° C., 4 days): 0.11% | Purity ([2]; 40° C., 4 days): 99.49% | Total impurities ([2]; 40° C., 4 days): 0.51% | Maximum single impurity ([2]; 40° C., 10 days): 0.12% | Purity ([2]; 40° C., 10 days): 99.52% | Total impurities ([2]; 40° C., 10 days): 0.48% | Maximum single impurity ([2]; 40° C., 20 days): 0.12% | Purity ([2]; 40° C., 20 days): 99.46% | Total impurities ([2]; 40° C., 20 days): 0.54% | Maximum single impurity ([2]; 60° C., 4 days): 0.15% | Purity ([2]; 60° C., 4 days): 99.44% | Total impurities ([2]; 60° C., 4 days): 0.56% | Maximum single impurity ([2]; 60° C., 10 days): 0.11% | Purity ([2]; 60° C., 10 days): 99.53% | Total impurities ([2]; 60° C., 10 days): 0.47% | Maximum single impurity ([2]; 60° C., 20 days): 0.11% | Purity ([2]; 60° C., 20 days): 99.42% | Total impurities ([2]; 60° C., 20 days): 0.58% | Maximum single impurity ([2]; 75% RH, 4 days): 0.15% | Purity ([2]; 75% RH, 4 days): 99.38% | Total impurities ([2]; 75% RH, 4 days): 0.62% | Maximum single impurity ([2]; 75% RH, 10 days): 0.12% | Purity ([2]; 75% RH, 10 days): 99.53% | Total impurities ([2]; 75% RH, 10 days): 0.47% | Maximum single impurity ([2]; 75% RH, 20 days): 0.11% | Purity ([2]; 75% RH, 20 days): 99.47% | Total impurities ([2]; 75% RH, 20 days): 0.53% | Maximum single impurity ([2]; 90% RH, 4 days): 0.11% | Purity ([2]; 90% RH, 4 days): 99.46% | Total impurities ([2]; 90% RH, 4 days): 0.54% | Maximum single impurity ([2]; 90% RH, 10 days): 0.12% | Purity ([2]; 90% RH, 10 days): 99.54% | Total impurities ([2]; 90% RH, 10 days): 0.46% | Maximum single impurity ([2]; 90% RH, 20 days): 0.11% | Purity ([2]; 90% RH, 20 days): 99.52% | Total impurities ([2]; 90% RH, 20 days): 0.48% | Maximum single impurity [2, 6]: 0.14% | Purity [2, 6]: 99.45% | Total impurities [2, 6]: 0.55% | Maximum single impurity [2, 7]: 0.11% | Purity [2, 7]: 99.54% | Total impurities [2, 7]: 0.46% | Maximum single impurity [2, 8]: 0.12% | Purity [2, 8]: 99.41% | Total impurities [2, 8]: 0.59% | stability under the influencing factor conditions (in words) ([2]; light illumination, 40° C., 60° C., 75% RH, 90% RH, 20 days): good | solubility ([3]; FaSSIF solution, fassif, read-out: FasSIF Solubility): 1250 µg/mL | solubility ([3]; PBS 7.4, pH 7.4, aqueous buffer, read-out: PBS 7.4 Solubility): 50 µg/mL | physical and chemical stability, long-term (in words) ([4]; 25° C., 60% RH for 9 months): good | Purity % 3 months ([4]; Batch 1, 25° C., 3 months): 99.52% | Purity % 3 months ([4]; Batch 1, 25° C., 3 months as printed, column between 3 and 9 months): 99.57% | Purity % 9 months ([4]; Batch 1, 25° C.): 99.50% | Purity Initial ([4]; Batch 1, 25° C.): 99.57% | Purity % 3 months ([4]; Batch 2, 25° C., 3 months): 99.50% | Purity % 3 months ([4]; Batch 2, 25° C., 3 months as printed, column between 3 and 9 months): 99.48% | Purity % 9 months ([4]; Batch 2, 25° C.): 99.48% | Purity Initial ([4]; Batch 2, 25° C.): 99.53% | Purity % 3 months ([4]; Batch 3, 25° C., 3 months): 99.38% | Purity % 3 months ([4]; Batch 3, 25° C., 3 months as printed, column between 3 and 9 months): 99.33% | Purity % 9 months ([4]; Batch 3, 25° C.): 99.40% | Purity Initial ([4]; Batch 3, 25° C.): 99.44% | crystal form before and after temperature rise (XRPD) ([5]; raised to 150° C.): did not change | crystal form before and after temperature rise (XRPD) ([5]; raised to 175° C.): did not change | logD (Log D): 1.17
